# Values joined by “and” are separate entries in the source; they are usually repeats but may differ in a detail not shown here. Equal entries are not always repeated.
# Columns and labels:
# [1] = (§1) Human liver microsomal stability of compound in microsomal protein, PBS buffer pH 7.4, NADPH, glucose-6-phosphate and glucose-6-phosphate dehydrogenase media. Aliquotes were taken at 5 time points and after stopping the reaction, supernatants were analyzed using HPLC coupled with a tandem mass spectrometer. The elimination constant, half-life, and intrinsic clearance are determined as results using linear regression analysis. The assay has been performed by Enamine biological services, Bienta Ltd.The protocol is publicly available: dx.doi.org/10.17504/protocols.io.5qpvokdb9l4o/v1; format: ADME, microsomes, Microsome; settings: for half-life / microsomal CLint: liver microsomes
# [2] = as §1, with “Mouse” for “Human”; format: ADME, microsomes, Microsome; settings: for CLint / Remaining / Remaining (without cofactor) / T1/2: microsomes; for half-life / microsomal CLint: liver microsomes
# For Remaining (without cofactor) in this document: time not given here.
# For Remaining in this document: time not given here.
Compound,Remaining (without cofactor) ([1]; microsomes),CLint [2],Remaining [2],Remaining (without cofactor) [2],T1/2 [2],half-life [1] [min],microsomal CLint [1] [µL/min/mg],Remaining ([1]; microsomes),half-life [2] [min],microsomal CLint [2] [µL/min/mg],CLint ([1]; microsomes) [µL/min/mg],T1/2 ([1]; microsomes) [min]
CC(C)[C@@H](Nc1ncnc2[nH]c(-c3cnn(C)c3C#N)cc12)c1ccc2c(n1)OCCO2,104% and 98% and 93%,169 µL/min/mg and 139 µL/min/mg and 371 µL/min/mg,6% and 10% and 1%,110% and 101% and 99%,9.9 min and 12 min and 4.5 min,,,,,,,
COc1ccc2c(c1)CCN(c1ncnc3[nH]ccc13)[C@H]2C(C)C,103%,,1%,83%,,27.8,60,38%,5.2,321,,
CNC(=O)c1cc2c(N[C@H](c3ccc4c(c3)S(=O)(=O)CCC4)C(C)C)ncnc2[nH]1,107%,,42%,106%,,25,67,33%,35.3,47,,
C[C@H](C(=O)O)[C@@H](NC(=O)c1ncnc2[nH]ccc12)c1ccc(Br)cc1,101.611%,,111.226%,100.245%,,574,3,92.211%,380,4,,
CC(C)[C@H](Nc1ncnc2[nH]ccc12)c1ccc2c(c1)NC(=O)CO2,95%,,54%,89%,,160,10,86%,45.1,37,,
CC(C)[C@@H](Nc1ncnc2[nH]ccc12)c1ccc2c(c1)S(=O)(=O)CCO2,92%,,33%,111%,,91.3,18,74%,24.2,69,,
CC(C)[C@H](Nc1ncnc2[nH]c(-c3cnn(C)c3C#N)cc12)c1ccc2c(n1)NC(=O)CO2,92%,,12%,85%,,12.2,137,10%,12.8,131,,
CC(C)[C@@H](Nc1ncnc2[nH]c(C(=O)N[C@H]3CCN(C)C3)cc12)c1ccc2c(c1)S(=O)(=O)CCC2,107%,,92%,92%,,64,26,66%,434,4,,
COCCNC(=O)c1c[nH]c2ncnc(N[C@@H](c3ccc4c(c3)S(=O)(=O)CCC4)C(C)C)c12,106%,,0%,99%,,3.1,540,0%,1.9,888,,
CC(C)[C@H](Nc1ncnc2[nH]ccc12)c1ccc2c(c1)S(=O)(=O)CCC2,92%,,3%,104%,,29.5,57,37%,8.1,207,,
Cn1ncc(-c2cc3c(N[C@@H](c4ccc5c(n4)OCCO5)C(C)(C)C)ncnc3[nH]2)c1C#N,91% and 108% and 85%,188 µL/min/mg and 226 µL/min/mg,4% and 5% and 2%,101% and 106% and 94%,8.9 min and 7.4 min,,,,8,209,,
Cc1nn(C)cc1-c1cc2c(N[C@@H](c3ccc4c(c3)S(=O)(=O)CCC4)C(C)C)ncnc2[nH]1,116%,,1%,103%,,6.6,251,2%,4.3,390,,
CCNC(=O)c1cc2c(N[C@@H](c3ccc4c(c3)S(=O)(=O)NCC4)C(C)C)ncnc2[nH]1,107%,,49%,101%,,19.7,85,24%,36.8,45,,
COc1ccc([C@@H](CC(=O)O)NC(=O)c2ncnc3[nH]ccc23)cc1,88%,,94%,96%,,240,7,87%,686,2,,
CC(C)[C@H](Nc1ncnc2[nH]c(-c3cnn(C)c3C#N)cc12)c1ccc2c(c1)S(=O)(=O)CCC2,101%,,1%,90%,,1.8,935,0%,5.4,311,,
O=C(Nc1ccccc1)Nc1ccc(C(=O)NC2c3cccc(O)c3CC2C(=O)O)cc1 (centres undefined),96%,,111%,99%,,187,9,123%,1070,2,,
CC(C)[C@H](Nc1ncnc2[nH]c(C(=O)N[C@H]3CCN(C)C3)cc12)c1ccc2c(c1)S(=O)(=O)CCC2,98%,,98%,97%,,150,11,80%,1540,1,,

# Results, then the compound that gave them:
Remaining (without cofactor) ([1]; microsomes),CLint [2],Remaining [2],Remaining (without cofactor) [2],T1/2 [2],half-life [1] [min],microsomal CLint [1] [µL/min/mg],Remaining ([1]; microsomes),half-life [2] [min],microsomal CLint [2] [µL/min/mg],CLint ([1]; microsomes) [µL/min/mg],T1/2 ([1]; microsomes) [min],Compound
101%,,27%,96%,,14.6,115,16%,20.7,81,,,CC(C)[C@H](Nc1ncnc2[nH]c(-c3cnn(C)c3C#N)cc12)c1ccc2c(c1)NC(=O)CO2
95%,,88%,116%,,60.8,27,64%,162,10,,,CC(C)(C)[C@H](Nc1ncnc2[nH]c(-c3cnn(CC(N)=O)c3)cc12)c1ccc2c(n1)OCCO2
98%,,23%,92%,,13.9,120,13%,19.1,87,,,CC(C)[C@@H](Nc1ncnc2[nH]c(-c3cnn(C)c3)cc12)c1ccc2c(c1)S(=O)(=O)NCC2
109%,,4%,100%,,19.6,85,22%,8.4,199,,,Cn1ncc(-c2cc3c(N[C@@H](c4ccc5c(c4)OCCO5)C(C)(C)C)ncnc3[nH]2)c1C#N
92%,,46%,90%,,14,119,14%,35.7,47,,,CNC(=O)Cn1cc(-c2cc3c(N[C@@H](c4ccc5c(c4)OCCO5)C(C)C)ncnc3[nH]2)cn1
97%,,13%,98%,,18.1,92,22%,13.5,124,,,CC(C)[C@H](Nc1ncnc2[nH]c(-c3cnn(CC(=O)N(C)C)c3)cc12)c1ccc2c(c1)S(=O)(=O)CCC2
100%,,48%,105%,,10.9,153,9%,38.3,44,,,CC(C)(C)[C@H](Nc1ncnc2[nH]c(-c3cnn(CC(N)=O)c3)cc12)c1ccc2c(c1)OCCO2
113%,,20%,95%,,21.2,79,27%,19,88,,,CNC(=O)c1c[nH]c2ncnc(N[C@@H](c3ccc4c(c3)OCCO4)C(C)C)c12
115%,,54%,102%,,3.3,500,0%,48.1,35,,,CC(C)[C@H](Nc1ncnc2[nH]c(-c3cnn(CC(=O)N(C)C)c3)cc12)c1ccc2c(c1)OCCO2
87% and 109%,39 µL/min/mg,46% and 54%,107% and 106%,43.1 min,12.6,133,11% and 18%,35.2,47,100,16.8,CC(C)(C)[C@@H](Nc1ncnc2[nH]c(-c3cnn(CC(N)=O)c3)cc12)c1ccc2c(c1)OCCO2
92%,,43%,112%,,21.1,79,23%,30.5,55,,,CNC(=O)c1cc2c(N[C@@H](c3ccc4c(c3)OCCO4)C(C)C)ncnc2[nH]1

# From ChEMBL document CHEMBL5442168, “ASAP - In vitro liver microsomal stability” (2024)
